The record followed here is ChEMBL document CHEMBL2375310, “Analysis of the antioxidant properties of differently substituted 2- and 3-indolyl carbohydrazides and related derivatives” (Eur J Med Chem, 2013).

The structures appear in SMILES notation. The source made the active and inactive calls. The rule behind the calls is not given here.

A short description of experiment [1]: Antioxidant activity assessed as Fe3+/ascorbic acid-induced hydroxyl radical scavenging activity at 100 uM after 30 mins. The format is functional.
The nature of experiment [2]: Antioxidant activity against AAPH-induced lipid peroxidation at 100 uM by UV spectrophotometry. It counts as functional.
For a further experiment, the system named is Glycine max. As to the kind of experiment: Inhibition of soybean lipoxygenase at 100 uM.
Experiment [3] can be described thus: Antioxidant activity assessed as xanthine-xanthine oxidase-induced superoxide anion radical scavenging activity at 0.1 mM after 10 mins by spectrophotometry. The format is functional.
Experiment [4] concerns Radical scavenging activity. The experiment can be described thus: Antioxidant activity assessed as DPPH free radical scavenging activity at 100 uM after 60 mins by spectrophotometry. It counts as functional. A general note: DPPH is a stable violet radical that fades when it is reduced.
The test system of experiment [5] is Radical scavenging activity. The experiment can be described thus: Antioxidant activity assessed as DPPH free radical scavenging activity at 100 uM by spectrophotometry. The format is functional.
The subject of experiment [6] is Radical scavenging activity. As to the kind of experiment: Antioxidant activity assessed as DPPH free radical scavenging activity at 100 uM after 20 mins by spectrophotometry. The format is functional.
The test system of experiment [7] is Radical scavenging activity. The experiment can be described thus: Antioxidant activity assessed as DPPH free radical scavenging activity at 50 uM after 20 to 60 mins by spectrophotometry. The format is functional.
Experiment [8] can be described thus: Inhibition of soybean lipoxygenase. Further details: species or system Glycine max.
The next experiment has as its system Rattus norvegicus. The experiment can be described thus: Antiinflammatory activity in Fisher 344 rat assessed as reduction of carrageenan-induced paw oedema at 0.01 mmol/kg, ip after 3.5 hrs. The format is functional. Further details: scale not given: the % may be the effect or the level left. Background: The carrageenan paw model is a standard test of acute inflammation.

For orientation: inhibition means the drop in the measured response relative to a control, in per cent. For orientation: IC50 means the concentration that gives 50% inhibition.

In the case of `Cc1c(C)c2c(c(C)c1O)CCC(C)(C(=O)O)O2` (centres undefined), the values for the Activity in experiment [1] and in experiment [2] were 73% and 63%, respectively.
`C/C(CC(C)C)=N\NC(=O)c1cc2ccccc2[nH]1`: in the experiment on Glycine max, the inhibition is 31%. Moreover, the outcome in experiment [3] and in experiment [7] was inactive. For the same compound, the Activity in experiment [1] turned out to be 74%; in experiment [2] it was 68%; in experiment [4], 36%; in experiment [6] it was 10%. For the same compound, the result in [5] was Active.
On to `C/C(Cc1ccccc1)=N/NC(=O)c1c[nH]c2ccc(O)cc12`, for which, in the experiment with Glycine max, the inhibition came to 52%. Further, the result in experiment [3] and in [7] was inactive. Also, the Activity in experiment [1] is 2%; in [2], 50%; in experiment [4], 80%; in [6] it was 65%.
As to `NNCCCc1c[nH]c2ccccc12`, the inhibition entry with Glycine max was “inactive”. The result in experiment [3] and in experiment [7] was inactive. The Activity in [1] turned out to be 34%; in experiment [2], 25%; in [4], 99%; in [6], 85%.
For `Cc1ccc(CNNC(=O)c2cc3ccccc3n2C)cc1`, in experiment [8], inhibition was half-maximal at 78 µM (IC50). The Activity was 67% in [3], 85% in experiment [2], 61% in experiment [4] and 66% in experiment [6]. Also, the result in experiment [1] and in experiment [7] was inactive. In addition, the outcome in [5] was Active.
`COc1ccc2c(c1)c(CC(=O)O)c(C)n2C(=O)c1ccc(Cl)cc1` [INDOMETHACIN]: the Activity in the experiment on Rattus norvegicus is 47%.
On to `CC(Cc1ccc(O)c(O)c1)C(C)Cc1ccc(O)c(O)c1` (centres undefined), for which the values for the Activity in [4] and in experiment [6] were 83% and 81%, respectively.
As for `NNC(=O)CCc1c[nH]c2ccccc12`, the inhibition result in the experiment on Glycine max is “inactive”. Moreover, the values for the Activity in [3], in experiment [4] and in experiment [6] were 67%, 56% and 12.5%, respectively. Also, the outcome in experiment [1], in experiment [2] and in experiment [7] was inactive.
In turn, `O=C(NN=C1CCCC1)c1cc2ccccc2[nH]1` registered an inhibition with Glycine max of 37%. For the same compound, the result in experiment [3], in [6] and in [7] was inactive. Also, the Activity in [1] was 17%; in experiment [2] it was 65%; in experiment [4] it was 38%. Also, in experiment [5], the result was Active.
For the compound `O=C(NNCCCc1ccccc1)c1cc2ccccc2[nH]1`, the inhibition in the experiment with Glycine max turned out to be 33%. The result in experiment [3], in experiment [1] and in [7] was inactive. The Activity in experiment [2] worked out at 64%; in experiment [4] it was 8.5%; in experiment [6] it was 53%. Besides, the outcome in experiment [5] was Active.
For `CCC(CC)NNC(=O)c1cc2ccccc2[nH]1`, in the experiment with Glycine max, the inhibition came to 19%. For the same compound, the outcome in experiment [3] and in experiment [7] was inactive. Moreover, the Activity came to 61% in [1], 30% in [2], 16% in experiment [4] and 11% in experiment [6]. Besides, the result in [5] was Active.
In the case of `CCCCNNC(=O)c1cc2ccccc2[nH]1`, the Activity in the experiment with Rattus norvegicus stood at 57%; in [3] it was 33%; in experiment [1], 90%; in experiment [2] it was 78%; in experiment [4], 8%; in experiment [6], 79%. Besides, in experiment [8], the IC50 came to 62.5 µM. In addition, the result in [5] was Active. The result in experiment [7] was inactive.
On to `O=C(O)/C=C/c1ccc(O)c(O)c1`, for which the Activity in experiment [3] amounted to 15%.
Take `CC(C)=NNC(=O)c1cc2ccccc2n1C`: the Activity in the experiment on Rattus norvegicus was 40%; in [3], 100%; in [1], 18%; in experiment [2] it was 87%; in experiment [4] it was 91%. The IC50 in [8] worked out at 62.5 µM. The result in experiment [6] and in experiment [7] was inactive.
